The assay deals with T1, recombinant human AMPK complex, containing α2β1γ2 (Homo sapiens, UniProt P54646+Q9Y478).
T1 construct: hsAMPKα2-552-His, hsAMPKβ1-2-270 and hsAMPKγ-2-569 respectively; hsAMPKβ1-2-270; hsAMPKγ-2-569; His (C); made in house; host or cells: Spodoptera frugiperda Sf21 (baculovirus)
As to the kind of experiment: AMPK in vitro activation assay (HTRF). The assay is classed as biochemical. The note with it: for EC50: HTRF, recombinant human α2β1γ2 AMPK, 200 μM ATP, biotinylated ACC-CREBp peptide, repeat determinations on separate lines; for Emax: potentiation of AMPK activity as percent over the basal signal (without compound). In short, it runs like this: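 Sf21-expressed, Ni-NTA partially purified α2β1γ2 complex preincubated 30 min at room temperature with compound (0.5% DMSO) in HEPES pH 7.0, MgCl2, DTT. Reaction was started with a solution holding 200 μM ATP and 2 or 0.08 μM biotinylated ACC-CREBp peptide, run 45 min at 37° C, then read by HTRF with anti-pS133-CREB; EC50 from percent over basal.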
(In general: In TR-FRET formats the signal depends on donor and acceptor labels being close together.)

Each structure is given as a SMILES string. Where a name gives a salt, the structure may show the parent alone.

T1 sequence (P54646 2-552): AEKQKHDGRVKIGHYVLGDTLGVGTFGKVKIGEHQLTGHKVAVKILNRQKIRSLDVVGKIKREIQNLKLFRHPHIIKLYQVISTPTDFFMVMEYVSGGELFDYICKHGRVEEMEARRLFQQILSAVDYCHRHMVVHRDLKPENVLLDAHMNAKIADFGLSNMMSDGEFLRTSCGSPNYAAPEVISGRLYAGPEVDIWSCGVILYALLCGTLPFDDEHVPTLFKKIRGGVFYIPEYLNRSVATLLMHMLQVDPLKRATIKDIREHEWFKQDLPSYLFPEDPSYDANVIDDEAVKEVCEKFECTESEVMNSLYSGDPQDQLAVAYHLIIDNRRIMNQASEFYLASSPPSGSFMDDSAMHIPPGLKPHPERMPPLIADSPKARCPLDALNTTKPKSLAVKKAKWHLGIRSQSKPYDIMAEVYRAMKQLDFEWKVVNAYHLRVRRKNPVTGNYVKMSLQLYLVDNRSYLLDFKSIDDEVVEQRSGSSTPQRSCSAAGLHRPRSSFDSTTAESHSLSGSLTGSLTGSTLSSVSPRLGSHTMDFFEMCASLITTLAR
T1 sequence (Q9Y478 2-270): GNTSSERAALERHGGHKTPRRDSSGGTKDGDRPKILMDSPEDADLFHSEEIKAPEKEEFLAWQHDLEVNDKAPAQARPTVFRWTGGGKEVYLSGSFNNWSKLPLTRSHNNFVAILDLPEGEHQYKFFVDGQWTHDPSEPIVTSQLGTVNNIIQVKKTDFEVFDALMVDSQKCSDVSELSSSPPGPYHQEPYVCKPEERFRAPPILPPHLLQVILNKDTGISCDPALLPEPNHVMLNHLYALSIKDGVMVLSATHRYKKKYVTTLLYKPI
T1 sequence (Q9UGJ0 2-569 partner limits assumed): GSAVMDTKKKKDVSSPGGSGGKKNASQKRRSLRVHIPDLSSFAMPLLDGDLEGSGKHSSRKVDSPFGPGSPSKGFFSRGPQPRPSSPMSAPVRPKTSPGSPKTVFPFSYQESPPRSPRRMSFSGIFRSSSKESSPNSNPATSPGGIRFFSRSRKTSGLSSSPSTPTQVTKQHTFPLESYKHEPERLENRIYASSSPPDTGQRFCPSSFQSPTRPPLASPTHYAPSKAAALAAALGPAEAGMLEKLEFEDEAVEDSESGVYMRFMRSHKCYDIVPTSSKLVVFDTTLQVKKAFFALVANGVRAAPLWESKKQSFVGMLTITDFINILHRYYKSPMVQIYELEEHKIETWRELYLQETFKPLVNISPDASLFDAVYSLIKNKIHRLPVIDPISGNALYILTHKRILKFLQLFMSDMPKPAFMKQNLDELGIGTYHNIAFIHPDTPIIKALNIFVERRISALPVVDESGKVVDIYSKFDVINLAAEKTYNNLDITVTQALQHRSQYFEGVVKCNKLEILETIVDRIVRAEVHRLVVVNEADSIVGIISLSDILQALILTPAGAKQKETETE

The term EC50 denotes the concentration at which the effect is half-maximal. In general, Emax refers to the size of the effect at its maximum, as opposed to the concentration needed. In the case of `O=C1Nc2cc(Cl)c(-c3ccc(C4CC(O)C4)cc3)cc2C1=C(O)c1cc(F)cc(F)c1` (stereo not shown) [Compound 161, 6-chloro-3-[(3,5-difluorophenyl)hydroxy-methylene]-5-[4-(3-hydroxycyclobutyl)phenyl]indolin-2-one], the EC50 was determined as 15 nM and the Emax is 155%.
For `COc1cc(C(O)=C2C(=O)Nc3cc(Cl)c(-c4ccc(N5CCC5)cc4)cc32)on1` [Compound 162, 5-[4-(azetidin-1-yl)phenyl]6-chloro-3-[hydroxy-(3-methoxyisoxazol-5-yl)methylene]indolin-2-one] the same measures were 0.7 nM and 191%.
In the case of `COc1ccc(C(O)=C2C(=O)Nc3cc(Cl)c(-c4ccc(C5(CO)CC5)cc4)cc32)c(OC)c1` [Compound 163, 6-chloro-3-[(2,4-dimethoxyphenyl)hydroxy-methylene]-5-[4-[1-(hydroxymethyl)cyclopropyl]phenyl]indolin-2-one], the EC50 was 3 nM and the Emax was 196%.
For `CC(C)(C)c1cc(C(O)=C2C(=O)Nc3cc(Cl)c(-c4ccc(C5CC(O)C5)cc4)cc32)on1` (stereo not shown) [Compound 164, 3-[(3-tert-butylisoxazol-5-yl)-hydroxy-methylene]6-chloro-5-[4-(3-hydroxycyclobutyl)phenyl]indolin-2-one] the same measures were 11 nM and 194%.
For `COc1cc(C(O)=C2C(=O)Nc3cc(Cl)c(-c4ccc(C5CC(OC)C5)cc4)cc32)on1` (stereo not shown) [Compound 165, 6-chloro-3-[hydroxy-(3-methoxyisoxazol-5-yl)methylene]-5-[4-(3-methoxycyclobutyl)phenyl]indolin-2-one] the same measures were 18 nM and 218%.
Turning to `CC(C)Oc1cc(C(O)=C2C(=O)Nc3cc(Cl)c(-c4ccc(C5CC(O)C5)cc4)cc32)on1` (stereo not shown) [Compound 166, 6-chloro-5-[4-(3-hydroxycyclobutyl)phenyl]-3-[hydroxy-(3-isopropoxyisoxazol-5-yl)methylene]indolin-2-one], the EC50 turned out to be 13 nM and the Emax worked out at 207%.
For `COc1cc(C(O)=C2C(=O)Nc3cc(Cl)c(-c4ccc(C5CCN(CC(F)(F)F)C5)cc4)cc32)on1` (stereo not shown) [Compound 167, 6-chloro-3-[hydroxy-(3-methoxyisoxazol-5-yl)methylene]-5-[4-[1-(2,2,2-trifluoroethyl)pyrrolidin-3-yl]phenyl]indolin-2-one hydrochloride] the same measures were 117 nM and 156%.
For `O=C1Nc2cc(Cl)c(-c3ccc(C4(CO)CC4)cc3)cc2C1=C(O)c1cc2ccccc2o1` [Compound 168, 3-[benzofuran-2-yl(hydroxy)methylene]6-chloro-5-[4-[1-(hydroxymethyl)cyclopropyl]phenyl]indolin-2-one], in that order: 0.3 nM and 173%.
On to `O=C1Nc2cc(Cl)c(-c3ccc(C4(CO)CC4)cc3)cc2C1=C(O)c1cc2ncccc2o1` [Compound 169, 6-chloro-3-[furo[3,2-b]pyridin-2-yl(hydroxy)methylene]-5-[4-[1-(hydroxymethyl)cyclopropyl]phenyl]indolin-2-one], for which the EC50 came out at 0.1 nM and the Emax came to 172%.
Turning to `O=C1Nc2cc(Cl)c(-c3ccc(C4(CO)CC4)cc3)cc2C1=C(O)c1cc2cc(Cl)ccc2o1` [Compound 170, 6-chloro-3-[(5-chlorobenzofuran-2-yl)hydroxy-methylene]-5-[4-[1-(hydroxymethyl)cyclopropyl]phenyl]indolin-2-one], the EC50 turned out to be 6 nM and the Emax stood at 181%.
For `O=C1Nc2cc(Cl)c(-c3ccc(C4CC(O)C4)cc3)cc2C1=C(O)c1ccccc1F` (stereo not shown) [Compound 171, 6-chloro-3-[(2-fluorophenyl)hydroxy-methylene]-5-[4-(3-hydroxycyclobutyl)phenyl]indolin-2-one], in that order: 6 nM and 197%.
For `COc1cc(C(O)=C2C(=O)Nc3cc(Cl)c(-c4ccc(OCCCN(C)C)cc4)cc32)on1` [Compound 173, 6-chloro-5-[4-[3-(dimethylamino)propoxy]phenyl]-3-[hydroxy-(3-methoxyisoxazol-5-yl)methylene]indolin-2-one], in that order: 1 nM and 181%.
With `O=C1Nc2cc(Cl)c(-c3ccc(C4CC(O)C4)cc3)cc2C1=C(O)c1cc(C2CC2)no1` (stereo not shown) [Compound 174, 6-chloro-3-[(3-cyclopropylisoxazol-5-yl)hydroxy-methylene]-5-[4-(3-hydroxycyclobutyl)phenyl]indolin-2-one], the EC50 came to 1 nM and the Emax stood at 185%.
`COc1cnccc1C(O)=C1C(=O)Nc2cc(Cl)c(-c3ccc(C4(CO)CC4)cc3)cc21` [Compound 175, 6-chloro-3-[hydroxy-(3-methoxy-4-pyridyl)methylene]-5-[4-[1-(hydroxymethyl)cyclopropyl]phenyl]indolin-2-one]: the EC50 was 2 nM and the Emax was found to be 198%.

For the origin of these results see patent publication US10077237B2 (Sanofi, priority 2013, dated 2018).
